{"source": "patent US20220323429A1", "about": "“PIMAVANSERIN FOR TREATING NEURODEGENERATIVE DISEASES” (ACADIA Pharmaceuticals Inc., priority 2019, published 2022)", "key": {"[1]": {"test": "Nasogastric Tube Compatibility Study, assay (HPLC)", "type": "physicochemical", "protocol": "(§1) Analytical HPLC Compatibility Study experiments (Example 2) were performed on Agilent 1200 Series, or equivalent; Waters XBridge C18 column, 5 μm 150×4.6 mm; mobile phase: Solvent A: 50 mM ammonium bicarbonate, pH 8.0; Solvent B: acetonitrile/methanol, 80:20 (v/v); Flow rate: 1 mL/min; Inj. Volume 60 μL; Autosampler Temp.: 5° C.; column temperature: 40° C.; the pooled limit of quantitation was 0.05% of 0.68 mg/mL; detection UV at 210 nm; sample concentration (as free base) assay: 0.034 mg/mL, impurity: 0.34 mg/mL; standard concentration (as free base) 0.034 mg/mL; PLOQ Std. 0.05% of 0.34 mg/mL; SST solution, 1% of 0.34 mg/mL (Impurities A, C, D, E, F, and G); diluent for standards 0.1N HCl; diluent for samples 0.1N HCl; run time, 40 min; gradient method: 0 min mobile phase A (90%) and mobile phase B (10%) to 30 min mobile phase A (0%), and mobile phase B (100%); then 30.1 min to 40 min mobile phase A (90%), mobile phase B (10%).\n(§2) Three samples of pimavanserin in water (n=3) were prepared as follows. The content of one capsule was dropped into a 100 mL bottle, and the empty capsule shell was discarded. Approximately 40 mL of water was added into the bottle, and the bottle was swirled until the contents were disintegrated. Syringes were secured approximately 1 meter above the benchtop, and the plungers were removed. The Hydromer coating on the weighted top of the NG tube was activated by submerging the weight assembly in water for 10 seconds. The NG tube was flushed with 20 mL of water, and remaining water in the syringe and the NG tube was expelled with the help of the syringe plunger. The weighted tip of the NG tube was placed into 100 mL volumetric flasks on the benchtop.\n(§3) For each sample, the aqueous dispersion was slowly poured into the syringe, allowing it to drain through the NG tube under gravity into the 100 mL collection volumetric flask. The original bottle containing the aqueous suspension of pimavanserin capsules was rinsed twice with 15 mL of water into the same syringe/NG tube system. The dispersion remaining in the syringe and NG tube was expelled with the help of the syringe plunger. Each flask was diluted to volume with 0.33N HCl (to make a final 0.1 N HCl concentration in the flask). The samples were sonicated for 15 minutes with intermediate shaking. A stir bar was added to the flask and the solution was stirred for 2 hours. An aliquot of each solution was centrifuged for 5 minutes at 10000 rom. The supernatant was transferred to a HPLC vial and injected for impurity analysis.\nSamples were prepared by transferring the stock solution using a 2.0 mL volumetric pipet into a 20 mL volumetric flask, diluted to volume with 0.1 N HCl, and mixed well by inversion. An aliquot of each solution was centrifuged for 5 minutes at 10000 rpm. The supernatant was transferred to a HPLC vial and injected for analysis.\n(§4) A “control” sample was prepared following the sample preparation procedure described above except it was not passed through a syringe/NG system. The content of one capsule was dropped into a 100 mL volumetric flask, and the empty capsule shell was discarded. Next 70 mL of water was added into the flask and swirled until the contents were completely disintegrated. The flask was diluted to volume with 0.33 N HCl (to make final 0.1N HCl concentration). The sample was sonicated for 15 minutes with intermediate shaking. A stir bar was dropped into the flask, and the solution was stirred for 2 hours. An aliquot was taken and centrifuged for 5 minutes at 10000 rpm. The supernatant was transferred to a HPLC vial and injected for impurity analysis."}, "[2]": {"test": "Nasogastric Tube Compatibility Study, impurities (HPLC)", "type": "physicochemical", "protocol": "as §1, §2, §3, §4"}}}
{"smiles": "CC(C)COc1ccc(CNC(=O)N(Cc2ccc(F)cc2)C2CCN(C)CC2)cc1", "note": "[Pimavanserin, N-(4-Fluorophenylmethyl)-N-(1-methylpiperidin-4-yl)-N′-(4-(2-methylpropyloxy)phenylmethyl)carbamide]", "values": [{"measurement": "Assay (%)", "setting": "[1]; 34 mg capsule in water passed through syringe/NG tube, sample N = 1", "result": 92.2, "unit": "%"}, {"measurement": "Assay (%)", "setting": "[1]; 34 mg capsule in water passed through syringe/NG tube, sample N = 2", "result": 92.7, "unit": "%"}, {"measurement": "Assay (%)", "setting": "[1]; 34 mg capsule in water passed through syringe/NG tube, sample N = 3", "result": 96.3, "unit": "%"}, {"measurement": "Assay (%)", "setting": "[1]; NG Tube Control: capsule in water, not passed through syringe/NG system", "result": 91.5, "unit": "%"}, {"measurement": "difference of assay between control sample and mean of 3 NG tube samples", "setting": "[1]; aqueous dispersion of 34 mg capsule", "result": "≤ 2", "unit": "%"}, {"measurement": "effect of in vitro administration through a NG tube on stability", "setting": "[1]; capsule contents added to different vehicles", "result": "no effect"}, {"measurement": "Assay Mean % (n = 6)", "setting": "[1]; mean of NG tube samples", "result": 93.8, "unit": "%"}, {"measurement": "Imp-D", "setting": "[2]; NG Tube Control", "result": 0.13, "unit": "% w/w"}, {"measurement": "Impurity RRT-0.36", "setting": "[2]; NG Tube Control", "result": 0.05, "unit": "% w/w"}, {"measurement": "Impurity RRT-0.54", "setting": "[2]; NG Tube Control", "result": 0.07, "unit": "% w/w"}, {"measurement": "Impurity RRT-0.96", "setting": "[2]; NG Tube Control", "result": 0.06, "unit": "% w/w"}, {"measurement": "Impurity RRT-0.99", "setting": "[2]; NG Tube Control", "result": 0.07, "unit": "% w/w"}, {"measurement": "Total degradation products and impurities", "setting": "[2]; NG Tube Control", "result": 0.38, "unit": "% w/w"}, {"measurement": "Imp-D", "setting": "[2]; NG Tube Mean (n = 3)", "result": 0.13, "unit": "% w/w"}, {"measurement": "Impurity RRT-0.36", "setting": "[2]; NG Tube Mean (n = 3)", "result": 0.06, "unit": "% w/w"}, {"measurement": "Impurity RRT-0.54", "setting": "[2]; NG Tube Mean (n = 3)", "result": 0.07, "unit": "% w/w"}, {"measurement": "Impurity RRT-0.85", "setting": "[2]; NG Tube Mean (n = 3)", "result": 0.05, "unit": "% w/w"}, {"measurement": "Impurity RRT-0.96", "setting": "[2]; NG Tube Mean (n = 3)", "result": 0.06, "unit": "% w/w"}, {"measurement": "Impurity RRT-0.99", "setting": "[2]; NG Tube Mean (n = 3)", "result": 0.06, "unit": "% w/w"}, {"measurement": "Impurity RRT-1.11", "setting": "[2]; NG Tube Mean (n = 3)", "result": 0.05, "unit": "% w/w"}, {"measurement": "Total degradation products and impurities", "setting": "[2]; NG Tube Mean (n = 3)", "result": 0.48, "unit": "% w/w"}, {"measurement": "Imp-D", "setting": "[2]; NG Tube N = 1", "result": 0.13, "unit": "% w/w"}, {"measurement": "Impurity RRT-0.36", "setting": "[2]; NG Tube N = 1", "result": 0.05, "unit": "% w/w"}, {"measurement": "Impurity RRT-0.54", "setting": "[2]; NG Tube N = 1", "result": 0.07, "unit": "% w/w"}, {"measurement": "Impurity RRT-0.85", "setting": "[2]; NG Tube N = 1", "result": 0.05, "unit": "% w/w"}, {"measurement": "Impurity RRT-0.96", "setting": "[2]; NG Tube N = 1", "result": 0.05, "unit": "% w/w"}, {"measurement": "Impurity RRT-0.99", "setting": "[2]; NG Tube N = 1", "result": 0.07, "unit": "% w/w"}, {"measurement": "Total degradation products and impurities", "setting": "[2]; NG Tube N = 1", "result": 0.42, "unit": "% w/w"}, {"measurement": "Imp-D", "setting": "[2]; NG Tube N = 2", "result": 0.14, "unit": "% w/w"}, {"measurement": "Impurity RRT-0.36", "setting": "[2]; NG Tube N = 2", "result": 0.06, "unit": "% w/w"}, {"measurement": "Impurity RRT-0.54", "setting": "[2]; NG Tube N = 2", "result": 0.07, "unit": "% w/w"}, {"measurement": "Impurity RRT-0.96", "setting": "[2]; NG Tube N = 2", "result": 0.06, "unit": "% w/w"}, {"measurement": "Impurity RRT-0.99", "setting": "[2]; NG Tube N = 2", "result": 0.07, "unit": "% w/w"}, {"measurement": "Impurity RRT-1.11", "setting": "[2]; NG Tube N = 2", "result": 0.05, "unit": "% w/w"}, {"measurement": "Total degradation products and impurities", "setting": "[2]; NG Tube N = 2", "result": 0.45, "unit": "% w/w"}, {"measurement": "Imp-D", "setting": "[2]; NG Tube N = 3", "result": 0.13, "unit": "% w/w"}, {"measurement": "Impurity RRT-0.99", "setting": "[2]; NG Tube N = 3", "result": 0.05, "unit": "% w/w"}, {"measurement": "Total degradation products and impurities", "setting": "[2]; NG Tube N = 3", "result": 0.18, "unit": "% w/w"}, {"measurement": "impurity profile of compatibility samples versus control sample", "setting": "[2]; NG tube", "result": "matched"}, {"measurement": "unknown impurities", "setting": "[2]; stability or recovery portions of the studies", "result": "< 0.1", "unit": "%"}]}
